Our source for the IC50 values is patent publication US9006450B2 (Boehringer Ingelheim International GmbH, priority 2010, dated 2015).

Broadly, the IC50 is the concentration needed to halve the response being measured.

The structures appear in SMILES notation.

The first assay deals with T1, human ACC2 (Homo sapiens, UniProt O00763).
T1 construct: made in house; host or cells: insect cells (baculoviral expression system)
T1 sequence (O00763 129-2458 limits assumed): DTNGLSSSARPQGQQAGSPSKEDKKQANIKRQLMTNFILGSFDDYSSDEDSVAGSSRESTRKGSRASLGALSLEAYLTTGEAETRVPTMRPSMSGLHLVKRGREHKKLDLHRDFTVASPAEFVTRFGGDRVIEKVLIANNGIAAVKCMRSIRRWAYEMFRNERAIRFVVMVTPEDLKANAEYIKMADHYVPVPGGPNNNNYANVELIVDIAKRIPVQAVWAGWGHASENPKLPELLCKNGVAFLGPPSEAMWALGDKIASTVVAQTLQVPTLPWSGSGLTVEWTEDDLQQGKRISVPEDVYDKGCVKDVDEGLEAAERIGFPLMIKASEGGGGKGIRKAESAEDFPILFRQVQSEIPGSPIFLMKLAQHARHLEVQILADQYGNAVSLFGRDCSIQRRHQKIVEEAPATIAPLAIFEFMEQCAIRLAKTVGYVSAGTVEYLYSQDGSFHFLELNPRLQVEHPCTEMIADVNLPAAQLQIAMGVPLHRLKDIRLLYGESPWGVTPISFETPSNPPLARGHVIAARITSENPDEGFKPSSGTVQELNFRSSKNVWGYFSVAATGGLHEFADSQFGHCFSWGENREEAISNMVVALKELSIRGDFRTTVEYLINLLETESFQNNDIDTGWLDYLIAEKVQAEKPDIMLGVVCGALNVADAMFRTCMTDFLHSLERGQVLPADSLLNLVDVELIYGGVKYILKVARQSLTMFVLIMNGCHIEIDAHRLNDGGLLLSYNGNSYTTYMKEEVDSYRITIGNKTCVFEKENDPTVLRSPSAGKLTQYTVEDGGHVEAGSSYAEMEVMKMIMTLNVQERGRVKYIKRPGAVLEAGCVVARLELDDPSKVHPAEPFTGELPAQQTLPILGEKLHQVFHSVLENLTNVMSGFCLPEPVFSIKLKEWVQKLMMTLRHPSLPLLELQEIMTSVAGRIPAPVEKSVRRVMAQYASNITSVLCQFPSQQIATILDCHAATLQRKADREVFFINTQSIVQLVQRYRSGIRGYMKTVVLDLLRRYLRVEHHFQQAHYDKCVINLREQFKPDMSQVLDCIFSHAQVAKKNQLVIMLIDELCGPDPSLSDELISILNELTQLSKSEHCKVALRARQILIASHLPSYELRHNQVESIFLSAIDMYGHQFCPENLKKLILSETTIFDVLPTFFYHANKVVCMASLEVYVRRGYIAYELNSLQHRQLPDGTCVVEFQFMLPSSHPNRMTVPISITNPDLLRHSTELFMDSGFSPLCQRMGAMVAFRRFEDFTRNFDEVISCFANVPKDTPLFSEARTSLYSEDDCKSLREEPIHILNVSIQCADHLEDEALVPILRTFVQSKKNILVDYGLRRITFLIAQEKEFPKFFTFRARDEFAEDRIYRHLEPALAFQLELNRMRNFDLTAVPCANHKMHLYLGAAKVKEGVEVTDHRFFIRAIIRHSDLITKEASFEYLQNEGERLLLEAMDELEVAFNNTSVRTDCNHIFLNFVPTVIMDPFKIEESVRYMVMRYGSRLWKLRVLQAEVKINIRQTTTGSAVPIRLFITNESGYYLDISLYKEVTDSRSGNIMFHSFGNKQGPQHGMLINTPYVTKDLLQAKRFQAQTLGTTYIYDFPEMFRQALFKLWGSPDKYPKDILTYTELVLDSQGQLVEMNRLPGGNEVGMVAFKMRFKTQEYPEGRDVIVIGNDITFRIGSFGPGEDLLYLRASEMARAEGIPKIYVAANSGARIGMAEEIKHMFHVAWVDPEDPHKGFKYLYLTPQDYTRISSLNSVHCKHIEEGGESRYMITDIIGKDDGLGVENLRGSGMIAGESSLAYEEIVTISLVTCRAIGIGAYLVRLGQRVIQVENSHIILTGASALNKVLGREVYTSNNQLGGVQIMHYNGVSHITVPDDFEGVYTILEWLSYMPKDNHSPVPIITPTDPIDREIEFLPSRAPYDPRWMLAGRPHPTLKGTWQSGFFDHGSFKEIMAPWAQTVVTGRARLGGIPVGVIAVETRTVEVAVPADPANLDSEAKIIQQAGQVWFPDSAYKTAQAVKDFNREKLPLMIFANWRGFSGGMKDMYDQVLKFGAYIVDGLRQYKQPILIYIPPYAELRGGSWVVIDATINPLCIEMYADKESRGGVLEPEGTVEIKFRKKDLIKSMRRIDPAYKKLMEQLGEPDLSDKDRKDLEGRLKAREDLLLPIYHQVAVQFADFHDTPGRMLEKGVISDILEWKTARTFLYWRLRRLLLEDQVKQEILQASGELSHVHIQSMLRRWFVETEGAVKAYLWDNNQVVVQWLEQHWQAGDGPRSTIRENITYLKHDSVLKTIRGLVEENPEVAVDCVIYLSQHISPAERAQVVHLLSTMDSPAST
The assay can be described thus: ACC2 assay, spectrophotometric 384 well assay (NADH-linked, coupled lactate dehydrogenase/pyruvate kinase). The format is biochemical. As to conditions: ACC2 assay, hACC2 construct lacking 128 N-terminal amino acids, 25° C., 340 nm; read-out: IC50. In outline: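 Human ACC2 lacking N-terminal 128 aa, baculovirus/insect-cell expressed, anion-exchange purified; 100 mM Tris pH 7.5, 10 mM citrate, 25 mM KHCO3, 1% DMSO. Started with 200 μM NADH and acetyl-CoA plus 500 μM ATP; PK/LDH-coupled A340 decrease read 15 min at 25° C. IC50 by nonlinear fit of low-control-subtracted slopes.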
For the molecule `CC(=O)N[C@@H](C)c1ccc(C2CCN(c3ccc4ccc(Cl)cc4n3)CC2)cc1` [Example 5.31], the IC50 is 1000 nM.
Same read-out and setting: the figure for `CC(=O)N[C@@H](C)c1ccc(C2CCN(c3ccc4c(Cl)cccc4n3)CC2)cc1` [Example 5.32] is 3800 nM; for `CC(=O)N[C@@H](C)c1ccc(C2CCN(c3nnc(-c4ccccc4)s3)CC2)cc1` [Example 5.33] it is 330 nM; for `CC(=O)N[C@@H](C)c1ccc(C2CCN(c3ccc(C(C)(F)F)cn3)CC2)cc1` [Example 5.34] it is 3200 nM.
Still for that read-out and setting: the figure for `CC(=O)N[C@@H](C)c1ccc(C2CCN(c3ccc(C4(C#N)CC4)cn3)CC2)cc1` [Example 5.35] is 2800 nM; for `C[C@H](NC(=O)C1CC1)c1ccc(C2CCN(c3nc(Cl)ncc3F)CC2)cc1` [Example 5.36] it is 3100 nM.
With `C[C@H](NC(=O)C1CC1)c1ccc(C2CCN(c3ncnc(Cl)c3F)CC2)cc1` [Example 5.37], the IC50 is 2900 nM.
Consider `CC(=O)N[C@@H](C)c1ccc(C2CCN(c3ncc(Br)cc3F)CC2)cc1` [Example 5.38], for which the IC50 came to 570 nM.
Regarding `CC(=O)N[C@@H](C)c1ccc(C2CCN(c3nccc(I)c3C)CC2)cc1` [Example 5.39], the IC50 came to 340 nM.
Same read-out and setting: the figure for `CC(=O)N[C@@H](C)c1ccc(C2CCN(c3ccnc(Cl)c3C)CC2)cc1` [Example 5.40] is 410 nM; for `CC(=O)N[C@@H](C)c1ccc(C2CCN(c3cc(C)ccn3)CC2)cc1` [Example 5.41] it is 5000 nM; for `CC(=O)N[C@@H](C)c1ccc(C2CCN(c3cccc(C)n3)CC2)cc1` [Example 5.42] it is 210 nM.
On the same count and under the same terms, the figure for `COc1cccc(N2CCC(c3ccc([C@H](C)NC(C)=O)cc3)CC2)n1` [Example 5.43] is 630 nM; for `CC(=O)N[C@@H](C)c1ccc(C2CCN(c3ccc(-c4ccc(Cl)cc4)cn3)CC2)cc1` [Example 5.44] it is 70 nM; for `CC(=O)N[C@@H](C)c1ccc(C2CCN(c3ccc(C)cn3)CC2)cc1` [Example 5.46] it is 1600 nM.
Same read-out and setting: the figure for `CCOc1ccnc(N2CCC(c3ccc([C@H](C)NC(C)=O)cc3)CC2)c1` [Example 5.47] is 800 nM; for `CCCOc1ccnc(N2CCC(c3ccc([C@H](C)NC(C)=O)cc3)CC2)c1` [Example 5.48] it is 420 nM.
Take `CC(=O)N[C@@H](C)c1ccc(C2CCN(c3ncccc3C)CC2)cc1` [Example 5.49]: the IC50 was 2600 nM.
Consider `CC(=O)N[C@@H](C)c1ccc(C2CCN(c3ncc(-c4ccccc4)c(Cl)n3)CC2)cc1` [Example 5.50, (S)—N-(1-{4-[1-(4-chloro-5-phenyl-pyrimidin-2-yl)-piperidin-4-yl]-phenyl}-ethyl)-acetamide], for which the IC50 worked out at 90 nM.
Same read-out and setting: the figure for `CC(=O)N[C@@H](C)c1ccc(C2CCN(c3cc(F)ncc3C)CC2)cc1` [Example 5.51] is 4800 nM; for `COC(=O)c1cnc(N2CCC(c3ccc([C@H](C)NC(C)=O)cc3)CC2)cn1` [Example 5.53] it is 7700 nM.
Same read-out and setting: the figure for `COC(=O)c1cncc(N2CCC(c3ccc([C@H](C)NC(C)=O)cc3)CC2)n1` [Example 5.54] is 9300 nM.
On to `CCOC(=O)c1cnnc(N2CCC(c3ccc([C@H](C)NC(C)=O)cc3)CC2)c1` [Example 5.55], for which the IC50 worked out at 7600 nM.
The same measure, in the same setting: the figure for `CC(=O)N[C@@H](C)c1ccc(C2CCN(c3nc4ccc(C)cc4s3)CC2)cc1` [Example 5.56] is 1200 nM.
For the molecule `CCCOc1ccc(N2CCC(c3ccc([C@H](C)NC(=O)C4CC4)cc3)CC2)nc1` [Example 5.57], the 50% inhibitory concentration (IC50) amounted to 230 nM.
On to `CCOc1ccc(N2CCC(c3ccc([C@H](C)NC(=O)C4CC4)cc3)CC2)nc1` [Example 5.58], for which the half-maximal inhibitory concentration (IC50) came to 860 nM.
`CC(=O)N[C@@H](C)c1ccc(C2CCN(c3cc(Cl)nc(N4CCCC4)n3)CC2)cc1` [Example 5.200, (S)—N-(1-{4-[1-(6-Chloro-2-pyrrolidin-1-yl-pyrimidin-4-yl)-piperidin-4-yl]-phenyl}-ethyl)-acetamide]: the IC50 worked out at 7500 nM.
On the same count and under the same terms, the figure for `CC(=O)N[C@@H](C)c1ccc(C2CCN(c3nc(N4CCCCC4)ncc3C(F)(F)F)CC2)cc1` [Example 5.201] is 790 nM; for `CCOc1ccc(N2CCC(c3ccc([C@H](C)NC(=O)CC#N)cc3)CC2)cc1` [Example 6.1, (S)-2-Cyano-N-(1-{4-[1-(4-ethoxy-phenyl)-piperidin-4-yl]-phenyl}-ethyl)-acetamide] it is 460 nM.
For the molecule `CCOc1ccc(N2CCC(c3ccc([C@H](C)NC(=O)c4ccco4)cc3)CC2)cc1` [Example 6.4], the IC50 came out at 2100 nM.
In the case of `CCOc1ccc(N2CCC(c3ccc([C@H](C)NC(=O)C4CCC4)cc3)CC2)cc1` [Example 6.7], the IC50 was determined as 770 nM.
For `CCOc1ccc(N2CCC(c3ccc([C@H](C)NC(=O)CC)cc3)CC2)cc1` [Example 6.8], the IC50 was 190 nM.
As for `CCOc1ccc(N2CCC(c3ccc([C@H](C)NC(=O)C4(C)CC4)cc3)CC2)cc1` [Example 6.9], the IC50 is 150 nM.
Turning to `CCOc1ccc(N2CCC(c3ccc([C@H](C)NC(=O)c4cn[nH]c4)cc3)CC2)cc1` [Example 6.10], the IC50 came out at 250 nM.
`CCOc1ccc(N2CCC(c3ccc([C@H](C)NC(=O)c4cncs4)cc3)CC2)cc1` [Example 6.11]: the IC50 came out at 340 nM.
On the same count and under the same terms, the figure for `CCOc1ccc(N2CCC(c3ccc([C@H](C)NC(=O)c4ccno4)cc3)CC2)cc1` [Example 6.12] is 1300 nM; for `CCOc1ccc(N2CCC(c3ccc([C@H](C)NC(=O)CC4CC4)cc3)CC2)cc1` [Example 6.13] it is 1100 nM.
Take `CCOc1ccc(N2CCC(c3ccc([C@H](C)NC(=O)COC)cc3)CC2)cc1` [Example 6.15]: the IC50 is 1000 nM.
For the molecule `C=CCC(=O)N[C@@H](C)c1ccc(C2CCN(c3ccc(OCC)cc3)CC2)cc1` [Example 6.16], the IC50 turned out to be 570 nM.
Same read-out and setting: the figure for `CCOCC(=O)N[C@@H](C)c1ccc(C2CCN(c3ccc(OCC)cc3)CC2)cc1` [Example 6.17] is 1900 nM; for `CCOc1ccc(N2CCC(c3ccc([C@H](C)NC(=O)C4CC4C)cc3)CC2)cc1` (some centres unmarked) [Example 6.18] it is 1100 nM; for `CCOc1ccc(N2CCC(c3ccc([C@H](C)NC(=O)c4ccnnc4)cc3)CC2)cc1` [Example 6.19] it is 1500 nM.
On to `CCOc1ccc(N2CCC(c3ccc([C@H](C)NC(=O)C4(C#N)CC4)cc3)CC2)cc1` [Example 6.20], for which the IC50 was determined as 670 nM.
Turning to `CCOc1ccc(N2CCC(c3ccc([C@H](C)NC(=O)Cc4ccccc4)cc3)CC2)cc1` [Example 6.21], the 50% inhibitory concentration (IC50) was 1600 nM.
The same measure, in the same setting: the figure for `CCOc1ccc(N2CCC(c3ccc([C@H](C)NC(=O)c4ccc[nH]4)cc3)CC2)cc1` [Example 6.22] is 670 nM.
Still for that read-out and setting: the figure for `CCOc1ccc(N2CCC(c3ccc([C@H](C)NC(=O)C4CC4(F)F)cc3)CC2)cc1` (some centres unmarked) [Example 6.23] is 420 nM; for `CCOc1ccc(N2CCC(c3ccc([C@H](C)NC(=O)c4cnc[nH]4)cc3)CC2)cc1` [Example 6.24] it is 3900 nM.
The same measure, in the same setting: the figure for `CCOc1ccc(N2CCC(c3ccc([C@H](C)NC(=O)c4cnco4)cc3)CC2)cc1` [Example 6.25] is 340 nM.
As to `CCOc1ccc(N2CCC(c3ccc([C@H](C)NC(=O)c4ccns4)cc3)CC2)cc1` [Example 6.26], the IC50 is 280 nM.

The assay is the same for the next values; noted with them: IC50, ACC2 assay, hACC2 construct lacking 128 N-terminal amino acids, 25° C., 340 nm.
`CCOc1ccc(N2CCC(c3ccc([C@H](C)NC(=O)CF)cc3)CC2)cc1` [Example 6.14] showed an IC50 of 190 nM.
